Source: article PMC2633461, “Porcine sclera as a model of human sclera for in vitro transport experiments: histology, SEM, and comparative permeability” (Molecular Vision, 2009)
Like-named read-outs stand apart in the source and are kept apart here.

Tests used:
[1] = Description: Porcine globes were obtained from pigs (Large White, Landrance, Duroc; 10–11 months) that ranged in weight 145–190 kg and came from a local slaughterhouse. Porcine eyes were either used within 24 h of explantation or frozen at −80 °C until use. After thawing, the adherent muscle tissue was removed from the eye bulb, and the anterior segment of the eye was circumferentially cut behind the limbus. The eye was then cut into two halves, the vitreous was removed, and the anterior sclera was used for permeation experiments after the removal of the underling tissues using a cotton swab. The frozen tissues were used within three months of explantation.
(§1) Permeation experiments were performed in Franz-type diffusion cells with an area of 0.2 cm^2 for human sclera and 0.6 cm^2 for porcine sclera.
(§2) To reduce edge damage, a thin layer of silicone lubricant was applied to the glass surface, and the minimum force necessary to keep the cell sealed was applied.
(§3) The receptor compartment contained 4 ml of 25 mM HEPES buffer (pH 7.4) added with 0.9% NaCl, kept at 37 °C, and magnetically stirred. […] At predetermined time intervals, the receptor solution was sampled for the determination of drug permeated.
(§4) The transscleral flux, i.e., the amount of drug that crosses 1 cm^2 of sclera in 1 h (J, µg/cm^2h) was calculated as the slope of the regression line at the steady-state while the lag time was the intercept of the regression line on the x-axis. The permeability coefficient (P, cm/s) was calculated as J/Cv where Cv represents the concentration of the donor solution.
(§5) Experiments performed with human sclera were replicated three to four times while those performed on porcine sclera were replicated five to seven times. All the experiments were performed using previously frozen tissues, and acetaminophen permeability was tested also through fresh pig sclera.
(§6) Acetaminophen and insulin were analyzed by HPLC with a Perkin-Elmer instrument (Norwalk, CT), which is made of an isocratic pump LC250 an UV detector LC290, and the Perkin Elmer Turbochrom Workstation software.
(§7) Acetaminophen was analyzed using a C18 Novapak® column (150×3.9 mm; Waters, Milford, MA) and a mobile phase composed of 92% (v/v) 10 mM sodium acetate pH 4 and 8% (v/v) acetonitrile, which was pumped at 1 ml/min. The detector was set at 254 nm.
(§8) Insulin was analyzed using a C18 Symmetry300® column (250×4.6 mm; Waters) at 40 °C and a mobile phase composed of 73% (v/v) aqueous phase and 27% (v/v) acetonitrile, which was pumped at 1 ml/min. The aqueous phase contained anhydrous sodium sulfate 28.4 g/l and phosphoric acid 2.7 ml/l and was adjusted at pH 2.3 with ethanolamine. The detector was set at 214 nm.
(§9) The excitation and emission λ were 490 and 520 nm, respectively.

[2] = remark: listed apart in the source
Description: Human corneal-scleral rims, which were discarded following harvesting of the corneal button (Regional Cornea Bank, Bologna, Italy), were frozen in liquid nitrogen and used within 15 days of explantation.
as §1, §2, §3, §4, §5, §6, §7, §8, §9

[3] = cited from earlier work
[4] = cited from earlier work; remark: listed apart in the source
Source text: Regardless of the nature of this interaction, we have estimated that the affinity of insulin for the sclera was the same for porcine and human tissues. […] These values (not statistically different between them, p=0.176) indicate a similar behavior of the two tissues toward insulin and also confirm that insulin has an effective affinity for the sclera. In fact, even if the absolute value of the par ...

[5] = no reference given; cited from earlier work
Description: The permeability was evaluated using three model compounds. […] Insulin has been chosen as a model protein. It has a molecular weight of 5,734 Da, a molecular radius of the monomeric form of 1.13 nm or 2.0 nm, and an isoelectric point of about 5.4. […] Permeation experiment ...

[6] = Affinity of insulin for scleral tissue: partition coefficient, porcine sclera / aqueous solution; assay type: in vitro ADME, pig; details: insulin about 100 µg/ml in HEPES pH 7.4 with EDTA and lysine, 0.4 ml on 50-100 mg tissue, 3 h, room temperature, HPLC, mean±SEM, n at least 6
Description: (§10) Affinity of insulin for scleral tissue was estimated by measuring its partition coefficient between human or porcine sclera and an aqueous solution at pH 7.4. Insulin was dissolved in the aqueous vehicle that was used as donor for the permeation experiments at a concentration of about 100 µg/ml. This solution (0.4 ml) was added to a previously weighed amount of human or porcine sclera (50–100 mg) in a 2.0 ml vial. The insulin solution and the scleral tissues were incubated at room temperature for 3 h. The solution was then filtered (regenerated cellulose, 0.45 µm pore size) and analyzed by HPLC for the determination of the final insulin concentration in the water phase [Wf]. The insulin concentration [S] in the sclera after the incubation period was calculated as:
(§11) [S]=[Wi] x VW - [Wf] x VW/VS
(§12) where [Wi] is the initial concentration of insulin in the aqueous phase, [Wf] is the concentration of insulin in the aqueous phase after the incubation period, VW is the volume of the aqueous phase (0.4 ml), and VS is the volume of the sclera, which was estimated by its weight and by considering the scleral density to be equal to 1 g/ml.
(§13) The partition coefficient (Ks/w) was then calculated as: […]
(§14) Each experiment was replicated at least six times.

[7] = Affinity of insulin for scleral tissue: partition coefficient, human sclera / aqueous solution; assay type: in vitro ADME; details: insulin about 100 µg/ml in HEPES pH 7.4 with EDTA and lysine, 0.4 ml on 50-100 mg tissue, 3 h, room temperature, HPLC, mean±SEM, n at least 6
Description: as §10, §11, §12, §13, §14

[8] = cited from earlier work; remark: listed apart in the source
[9] = cited from earlier work; remark: listed apart in the source
[10] = neutral molecules of different lipophilicity, rhodamine 6G electrically charged at the pH of the experiment

For `CC(=O)Nc1ccc(O)cc1` [Acetaminophen, acetaminophen], the “DK (diffusion coefficient x partition coefficient)” value (“DK” below) ([1]; SEM) was 1.95±0.26 cm^2/s x10^−6, the “Effect of freezing on tissue permeability (fresh vs previously frozen porcine sclera)” value ([1]; pH 7.4) was “did not have any effect on tissue permeability” and the “P (permeability coefficient)” value ([1]; pH 7.4) was 15.6±2.1 cm/s x10^−6. For the same compound, the Lag-time ([1]; pH 7.4, SEM) was 35 ± 2 min, the “Flux through human sclera relative to pig sclera” value [2] was 2 times and the “DK” value ([2]; SEM) was 2.05±0.18 cm^2/s x10^−6. For the same compound, the Lag-time ([2]; pH 7.4) was “no lag time was detectable”, the “P (permeability coefficient)” value ([2]; pH 7.4) was 34.9±3.0 cm/s x10^−6 and the “Permeability coefficient across human sclera” value ([2]; pH 7.4) was 3.49 [±0.3] x10^-5 cm/s. The Molecular radius [3] was 0.36 nm.

For `CCCC1O[C@@H]2C[C@H]3[C@@H]4CCC5=CC(=O)C=C[C@]5(C)[C@H]4[C@@H](O)C[C@]3(C)[C@]2(C(=O)CO)O1` (stereo partly shown) [budesonide], the “Partition coefficient sclera (literature)” value (“Partition coefficient sclera” for short) [4, 10] is listed as 1.2.

For `Cc1ccc(-c2cc(C(F)(F)F)nn2-c2ccc(S(N)(=O)=O)cc2)cc1` [celecoxib], the “Partition coefficient sclera” value [4, 10] is listed as 1.4.

For `OC[C@@H](O)[C@@H](O)[C@H](O)[C@H](O)CO` [mannitol], the “Partition coefficient sclera” value [4, 10] is listed as 0.005.

For `CC/N=c1\cc2oc3cc(NCC)c(C)cc3c(-c3ccccc3C(=O)OCC)c-2cc1C` [rhodamine 6G], the “Partition coefficient sclera” value [4, 10] is listed as “high affinity”.

In the case of `OC[C@H]1O[C@@](CO)(O[C@H]2O[C@H](CO)[C@@H](O)[C@H](O)[C@H]2O)[C@@H](O)[C@@H]1O` [sucrose], the “Partition coefficient sclera” value [4] is given as 0.6.

For “Insulin from bovine pancreas [listing 1 of 2 here]”, the isoelectric point [5] is listed as “about 5.4”, the Flux ([1]; porcine sclera, previously frozen, Franz-type cell 0.6 cm^2, donor 4.9 mg/ml acetaminophen, 1 mg/ml FD-150 or 1 mg/ml insulin in 25 mM HEPES pH 7.4, receptor HEPES pH 7.4 + 0.9% NaCl (0.3% BSA for insulin), 37 °C, slope at steady state, HPLC-UV (FD-150 fluorescence), mean±SEM, n = 5-7, SEM) is listed as 3.74±2.10 µg/cm^2h and the Lag-time ([1]; porcine sclera, previously frozen, intercept of the regression line on the x-axis, donor pH 7.4, 37 °C, mean±SEM, n = 5-7, SEM) is listed as 198 ± 23 min. For the same compound, the “DK” value ([1]; porcine sclera, from P = DK/H with H = tissue thickness (1.25 mm), mean±SEM, SEM) was 0.11±0.05 cm^2/s x10^−6, the Flux ([2]; human sclera, previously frozen, Franz-type cell 0.2 cm^2, donor 4.9 mg/ml acetaminophen, 1 mg/ml FD-150 or 1 mg/ml insulin in 25 mM HEPES pH 7.4, receptor HEPES pH 7.4 + 0.9% NaCl (0.3% BSA for insulin), 37 °C, slope at steady state, HPLC-UV (FD-150 fluorescence), mean±SEM, n = 3-4, SEM) was 6.93±1.14 µg/cm^2h and the “P (permeability coefficient)” value ([2]; human sclera, previously frozen, Franz-type cell 0.2 cm^2, donor pH 7.4 HEPES, 37 °C, P = J/Cv, mean±SEM, n = 3-4) was 1.93±0.32 cm/s x10^−6. The Lag-time ([2]; human sclera, previously frozen, intercept of the regression line on the x-axis, donor pH 7.4, 37 °C, mean±SEM, n = 3-4, SEM) was 71 ± 6 min, the “DK” value ([2]; human sclera, from P = DK/H with H = tissue thickness (0.59 mm), mean±SEM, SEM) was 0.11±0.02 cm^2/s x10^−6 and the “Flux through human sclera relative to pig sclera” value ([2]; ratio human / pig sclera flux) was 2 times. For the same compound, the “Partition coefficient (Ks/w) between sclera and donor solution” value [6] was 7.0±1.1 and the “Partition coefficient (Ks/w) between sclera and donor solution” value [7] was 10.3±1.2.

In the case of “Insulin from bovine pancreas [listing 2 of 2 here]”, the Molecular radius of the monomeric form [8] is given as 1.13 nm and the Molecular radius (dimers/hexamers in solution) [9] is given as 2.5 nm.
